# Experimental data reported in US6737383B1, “Herbicidal oxadiazolidines” (priority 1999, dated 2004).
# Key:
# Spanishneedles = experiment: Test D Spanishneedles; format: in vivo, Bidens bipinnata; settings: Preemergence, 0 to 100 scale
# Outline: (§1)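 Values are visual plant-response ratings (0 no injury, 100 complete control) recorded 14 to 21 days after herbicide treatment, using a non-phytotoxic solvent mixture containing surfactant. Preemergence applications went to the surface of pots holding freshly sown seed in sandy loam.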
# Green foxtail [1] = experiment: Test D green foxtail; format: in vivo; settings: Preemergence, 0 to 100 scale
# Outline: as §1
# goosegrass = experiment: Test D goosegrass; format: in vivo, Eleusine indica; settings: Preemergence, 0 to 100 scale
# Outline: as §1
# large crabgrass = experiment: Test D large crabgrass; format: in vivo, Digitaria sanguinalis; settings: Preemergence, 0 to 100 scale
# Outline: as §1
# pitted morningglory = experiment: Test D pitted morningglory; format: in vivo, Ipomoea lacunosa; settings: Preemergence, 0 to 100 scale
# Outline: as §1
# sandbur = experiment: Test D sandbur; format: in vivo, Cenchrus echinatus; settings: Preemergence, 0 to 100 scale
# Outline: as §1
# itchgrass = experiment: Test D itchgrass; format: in vivo, Rottboellia exaltata; settings: Preemergence, 0 to 100 scale
# Outline: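 Scoring used a 0–100 visual injury scale, with 0 meaning no effect and 100 complete control, assessed 14–21 days after application alongside untreated pots. Preemergence treatments went onto sandy loam surfaces of separately potted seeds within a day of sowing.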
# dallisgrass = experiment: Test D dallisgrass; format: in vivo, Paspalum dilatatum; settings: Preemergence, 0 to 100 scale
# Outline: as §1
# common ragweed = experiment: Test D common ragweed; format: in vivo, Ambrosia elatior; settings: Preemergence, 0 to 100 scale
# Outline: as §1
# Green foxtail [2] = experiment: Test D green foxtail; format: in vivo
# Outline: as §1
# Johnson grass = experiment: Test D Johnson grass; format: in vivo, Sorghum halepense; settings: Preemergence, 0 to 100 scale
# Outline: as §1
# Alexandergrass = experiment: Test D Alexandergrass; format: in vivo, Brachiaria plantaginea; settings: Preemergence, 0 to 100 scale
# Outline: as §1
# common groundsel = experiment: Test D common groundsel; format: in vivo, Senecio vulgaris; settings: Preemergence, 0 to 100 scale
# Outline: as §1
# tall mallow = experiment: Test D tall mallow; format: in vivo, Malva sylvestris; settings: Preemergence, 0 to 100 scale
# Outline: as §1
# purple nutsedge = experiment: Test D purple nutsedge; format: in vivo, Cyperus rotundus; settings: Preemergence, 0 to 100 scale
# Outline: as §1
# guineagrass = experiment: Test D guineagrass; format: in vivo, Panicum maximum; settings: Preemergence, 0 to 100 scale
# Outline: as §1
# surinam grass = experiment: Test D surinam grass; format: in vivo, Brachiaria decumbens; settings: Preemergence, 0 to 100 scale
# Outline: as §1
# [3] = Rate 16 g/ha, 0 no injury, 100 complete control
# [4] = Rate 32 g/ha, 0 no injury, 100 complete control
# [5] = Rate 64 g/ha, 0 no injury, 100 complete control
# [6] = Rate 125 g/ha, 0 no injury, 100 complete control
# [7] = Rate 64 g/ha, Preemergence; 0 to 100 scale, 0 no injury, 100 complete control
# [8] = Rate 125 g/ha, Preemergence; 0 to 100 scale, 0 no injury, 100 complete control
smiles,measurement,setting,value
CC(C)N(C(=O)n1oc(=O)n(Cc2cccs2)c1=O)c1ccccc1 [Compound 103],"Plant response rating, Spanishneedles",Spanishneedles; [3],0
same,"Plant response rating, Spanishneedles",Spanishneedles; [4],0
same,Spanishneedles plant response rating,Spanishneedles; [5],0
same,Spanishneedles plant response rating,Spanishneedles; [6],0
same,"Plant response rating, Spanishneedles",Spanishneedles; Rate 500 g/ha,20
same,"Plant response rating, Green foxtail",Green foxtail [1]; Rate 250 g/ha,100
same,"Plant response rating, Green foxtail",Green foxtail [1]; Rate 500 g/ha,100
same,"Plant response rating, Goosegrass",goosegrass; [3],0
same,"Plant response rating, Goosegrass",goosegrass; [4],30
same,"Plant response rating, Goosegrass",goosegrass; [5],65
same,"Plant response rating, Goosegrass",goosegrass; [6],85
same,"Plant response rating, Goosegrass",goosegrass; Rate 250 g/ha,98
same,"Plant response rating, Goosegrass",goosegrass; Rate 500 g/ha,100
same,"Plant response rating, Large crabgrass",large crabgrass; [3],0
same,"Plant response rating, Large crabgrass",large crabgrass; [4],0
same,"Plant response rating, Large crabgrass",large crabgrass; [5],85
same,"Plant response rating, Large crabgrass",large crabgrass; [6],95
same,"Plant response rating, Large crabgrass",large crabgrass; Rate 250 g/ha,98
same,"Plant response rating, Large crabgrass",large crabgrass; Rate 500 g/ha,100
same,"Plant response rating, P. morninglory",pitted morningglory; [3],0
same,"Plant response rating, P. morninglory",pitted morningglory; [4],0
same,"Plant response rating, P. morninglory",pitted morningglory; [5],0
same,"Plant response rating, P. morninglory",pitted morningglory; [6],0
same,"Plant response rating, P. morninglory",pitted morningglory; Rate 250 g/ha,0
same,"Plant response rating, P. morninglory",pitted morningglory; Rate 500 g/ha,0
same,"Plant response rating, Sandbur",sandbur; [3],0
same,"Plant response rating, Sandbur",sandbur; [4],0
same,Sandbur plant response rating,sandbur; [5],0
same,Sandbur plant response rating,sandbur; [6],0
same,"Plant response rating, Sandbur",sandbur; Rate 250 g/ha,75
same,"Plant response rating, Sandbur",sandbur; Rate 500 g/ha,100
same,"Plant response rating, Itchgrass",itchgrass; [3],0
same,"Plant response rating, Itchgrass",itchgrass; [4],0
same,"Plant response rating, Itchgrass",itchgrass; [5],0
same,"Plant response rating, Itchgrass",itchgrass; [6],0
same,"Plant response rating, Itchgrass",itchgrass; Rate 250 g/ha,0
same,"Plant response rating, Itchgrass",itchgrass; Rate 500 g/ha,0
same,"Plant response rating, Dallisgrass",dallisgrass; [3],10
same,"Plant response rating, Dallisgrass",dallisgrass; [4],20
same,"Plant response rating, Dallisgrass",dallisgrass; [5],45
same,"Plant response rating, Dallisgrass",dallisgrass; [6],65
same,"Plant response rating, Dallisgrass",dallisgrass; Rate 250 g/ha,98
same,"Plant response rating, Dallisgrass",dallisgrass; Rate 500 g/ha,100
same,"Plant response rating, C. ragweed",common ragweed; [3],0
same,"Plant response rating, C. ragweed",common ragweed; [4],0
same,"Plant response rating, C. ragweed",common ragweed; [5],0
same,"Plant response rating, C. ragweed",common ragweed; [6],0
same,"Plant response rating, C. ragweed",common ragweed; Rate 250 g/ha,0
same,"Plant response rating, C. ragweed",common ragweed; Rate 500 g/ha,0
same,"Plant response rating, Green foxtail","Green foxtail [2]; Preemergence; Rate 16 g/ha; 0 to 100 scale, 0 no injury, 100 complete control",0
same,"Plant response rating, Green foxtail","Green foxtail [2]; Preemergence; Rate 32 g/ha; 0 to 100 scale, 0 no injury, 100 complete control",0
same,"Plant response rating, Green foxtail","Green foxtail [2]; Rate 16 g/ha; Preemergence; 0 to 100 scale, 0 no injury, 100 complete control",0
same,"Plant response rating, Green foxtail","Green foxtail [2]; Rate 32 g/ha; Preemergence; 0 to 100 scale, 0 no injury, 100 complete control",85
same,Green foxtail plant response rating,Green foxtail [2]; [7],50
same,"Plant response rating, Green foxtail",Green foxtail [2]; [7],50
same,Green foxtail plant response rating,Green foxtail [2]; [8],100
same,"Plant response rating, Green foxtail",Green foxtail [2]; [8],100
same,"Plant response rating, Green foxtail",Green foxtail [2]; Rate 250 g/ha; Preemergence; 0 to 100 scale,100
same,"Plant response rating, Green foxtail","Green foxtail [2]; Rate 500 g/ha, Preemergence; 0 to 100 scale",100
same,"Plant response rating, Johnsongrass",Johnson grass; [3],0
same,"Plant response rating, Johnsongrass",Johnson grass; [4],0
same,"Plant response rating, Johnsongrass",Johnson grass; [5],0
same,"Plant response rating, Johnsongrass",Johnson grass; [6],0
same,"Plant response rating, Johnsongrass",Johnson grass; Rate 250 g/ha,0
same,"Plant response rating, Johnsongrass",Johnson grass; Rate 500 g/ha,40
same,"Plant response rating, Alexandergrass",Alexandergrass; [3],0
same,"Plant response rating, Alexandergrass",Alexandergrass; [4],0
same,"Plant response rating, Alexandergrass",Alexandergrass; [5],0
same,"Plant response rating, Alexandergrass",Alexandergrass; [6],40
same,"Plant response rating, Alexandergrass",Alexandergrass; Rate 250 g/ha,85
same,"Plant response rating, Alexandergrass",Alexandergrass; Rate 500 g/ha,95
same,"Plant response rating, Com. groundsel",common groundsel; [3],0
same,"Plant response rating, Com. groundsel",common groundsel; [4],0
same,"Plant response rating, Com. groundsel",common groundsel; [5],0
same,"Plant response rating, Com. groundsel",common groundsel; [6],0
same,"Plant response rating, Com. groundsel",common groundsel; Rate 250 g/ha,0
same,"Plant response rating, Com. groundsel",common groundsel; Rate 500 g/ha,0
same,"Plant response rating, Tall Mallow",tall mallow; [3],0
same,"Plant response rating, Tall Mallow",tall mallow; [4],0
same,Tall Mallow plant response rating,tall mallow; [5],0
same,Tall Mallow plant response rating,tall mallow; [6],0
same,"Plant response rating, Tall Mallow",tall mallow; Rate 250 g/ha,0
same,"Plant response rating, Tall Mallow",tall mallow; Rate 500 g/ha,0
same,"Plant response rating, Purple nutsedge",purple nutsedge; [3],0
same,"Plant response rating, Purple nutsedge",purple nutsedge; [4],0
same,Purple nutsedge plant response rating,purple nutsedge; [5],0
same,Purple nutsedge plant response rating,purple nutsedge; [6],0
same,"Plant response rating, Purple nutsedge",purple nutsedge; Rate 250 g/ha,0
same,"Plant response rating, Purple nutsedge",purple nutsedge; Rate 500 g/ha,10
same,"Plant response rating, Guineagrass",guineagrass; [3],0
same,"Plant response rating, Guineagrass",guineagrass; [4],0
same,"Plant response rating, Guineagrass",guineagrass; [5],0
same,"Plant response rating, Guineagrass",guineagrass; [6],85
same,"Plant response rating, Guineagrass",guineagrass; Rate 250 g/ha,90
same,"Plant response rating, Guineagrass",guineagrass; Rate 500 g/ha,100
same,"Plant response rating, Surinam grass",surinam grass; [3],0
same,"Plant response rating, Surinam grass",surinam grass; [4],0
same,Surinam grass plant response rating,surinam grass; [5],0
same,Surinam grass plant response rating,surinam grass; [6],0
same,"Plant response rating, Surinam grass",surinam grass; Rate 250 g/ha,0
same,"Plant response rating, Surinam grass",surinam grass; Rate 500 g/ha,40
